Results on 39 compounds are retold here after US7557134B2, “N-(heteroaryl)-1H-indole-2-carboxamide derivatives and their use as vanilloid TRPV1 receptor ligands” (Sanofi-Aventis, priority 2005, dated 2009).

Usually inhibition stands for the share of the control response that was lost under treatment. A high value points to strong suppression. A word on the melting point: it is the temperature, or range, at which the solid turns liquid.

The structures appear in SMILES notation. Counter-ions that a name gives are not always drawn.

For one data set, the target named is T1, TRPV1 receptor (Rattus norvegicus, UniProt O35433).
T1 construct: The neurons of the DRG naturally express the TRPV1 receptor; endogenous in cells; host or cells: primary culture of newborn rat dorsal root ganglion neurons
T1 sequence (O35433 whole entry): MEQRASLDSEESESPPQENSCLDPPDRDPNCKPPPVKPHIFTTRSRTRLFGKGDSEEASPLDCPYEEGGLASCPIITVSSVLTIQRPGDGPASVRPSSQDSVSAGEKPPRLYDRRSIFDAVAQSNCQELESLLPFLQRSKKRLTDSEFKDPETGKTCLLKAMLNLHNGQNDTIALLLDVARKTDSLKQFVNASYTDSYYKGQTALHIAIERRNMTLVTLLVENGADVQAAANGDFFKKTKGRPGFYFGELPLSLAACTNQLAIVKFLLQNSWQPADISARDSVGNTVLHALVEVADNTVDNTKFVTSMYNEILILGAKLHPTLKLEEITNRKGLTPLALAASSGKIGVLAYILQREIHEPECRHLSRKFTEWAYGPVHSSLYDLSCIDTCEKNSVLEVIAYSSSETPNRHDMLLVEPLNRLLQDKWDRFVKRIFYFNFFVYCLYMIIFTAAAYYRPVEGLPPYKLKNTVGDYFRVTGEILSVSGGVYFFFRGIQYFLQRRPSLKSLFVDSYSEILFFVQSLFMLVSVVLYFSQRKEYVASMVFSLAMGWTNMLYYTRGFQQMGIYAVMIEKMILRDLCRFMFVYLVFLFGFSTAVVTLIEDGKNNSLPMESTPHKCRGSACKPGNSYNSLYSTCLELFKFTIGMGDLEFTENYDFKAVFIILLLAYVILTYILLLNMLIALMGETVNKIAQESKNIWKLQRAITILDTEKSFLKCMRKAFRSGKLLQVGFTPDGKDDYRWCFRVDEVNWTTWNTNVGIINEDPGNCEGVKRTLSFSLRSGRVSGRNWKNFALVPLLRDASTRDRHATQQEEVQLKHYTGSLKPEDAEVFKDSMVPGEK
Nature of the data set: Test of inhibition of the current induced with capsaicin on rat DRGs (whole-cell patch-clamp). In kind it is cell-based. The note with it: DRG neuron; compound 1 nM; capsaicin response 300 nM; rat DRG neurons. Here is the method: Test of Inhibition of the Current Induced with Capsaicin on rat DRGs
• Primary culture of rat dorsal root ganglion (DRG) cells:
The neurons of the DRG naturally express the TRPV1 receptor.
The primary cultures of newborn rat DRGs are prepared using 1-day-old rats. Briefly, after dissection, the ganglions are trypsinized and the cells dissociated by mechanical trituration. The cells are resuspended in an Eagle basal culture medium containing 10% fetal calf serum, 25 mM KCl, 2 mM glutamine, 100 μg/ml gentamicin and 50 ng/ml of NGF, and then deposited on glass slides coated with laminin (0.25×10^6 cells per slide), which are then placed in Corning 12-well dishes. The cells are incubated at 37° C. in a humidified atmosphere containing 5% CO2 and 95% air. Cytosine β-D-arabinoside (1 μM) is added 48 hours after culturing, to prevent the growth of non-neuronal cells. The slides are transferred into experimental chambers for the patch-clamp studies after 7-10 days of culturing.
The measuring chambers (volume 800 μl) containing the cell preparation are placed on the platform of an inverted microscope (Olympus IMT2) equipped with Hoffman optics (Modulation Contrast, New York) and observed at a magnification of 400×. The chambers are continuously gravity-influxed (2.5 ml/min) using a solution distributor accepting 8 inlets and whose sole outlet, consisting of a polyethylene tube (aperture 500 μm), is placed less than 3 mm from the cell under study. The “whole cell” configuration of the patch-clamp technique was used. […] The overall currents (membrane potential set at […]) are recorded with an Axopatch 1 D amplifier (Axon Instruments, Foster city, Calif.), connected to a PC running the Pclamp8 software (Axon Instrument). The current plots are recorded on paper and simultaneously digitized (sampling frequency 15 to 25 Hz) and acquired on the hard drive of the PC.
The application of a 300 nM capsaicin solution induces on the DRG cells (voltage set at −70 mV) an entering cationic current. […] The results are expressed as a percentage of inhibition of the control capsaicin response.
In general terms: Patch clamp records ionic current or voltage across a cell membrane.
`Cn1ncc2cc(NC(=O)c3cc4cc(C(F)(F)F)ccc4n3Cc3cccc(F)c3)ccc21` [Compound 19, N-(1-methyl-1H-indazol-5-yl)-5-trifluoromethyl-1-[(3-fluorophenyl)methyl]-1H-indole-2-carboxamide] came in with an inhibition at 0.001 µM of 48%.

System in another data set: not given
Experiment: not given
Conditions: not given
For the compound `CS(=O)(=O)N1CCc2cc(NC(=O)c3cc4cc(C(F)(F)F)ccc4n3Cc3cccc(F)c3)ccc21` [Compound 31, N-(1-methylsulfonylindolin-5-yl)-5-trifluoromethyl-1-[(3-fluorophenyl)methyl]-1H-indole-2-carboxamide], the melting point lay within 214 to 215 °C.

`CC1C(=O)NOc2cc(NC(=O)c3cc4ccccc4n3-c3cccc(C(F)(F)F)c3)ccc21` (stereo not drawn) [Compound 5, N-(4-methyl-3-oxo-2H-benzoxazin-7-yl)-1-[3-(trifluoromethyl)phenyl]-1H-indole-2-carboxamide] gave a melting point of 198 to 200 °C.

Take `O=C(Nc1ccc2cnccc2c1)c1cc2cc(F)ccc2n1Cc1cccc(F)c1`: the melting point lay in the range of 139 to 141 °C.

As for `O=C(Nc1ccc2occc2c1)c1cc2ccccc2n1-c1cccc(C(F)(F)F)c1` [Compound 8, N-(benzofuran-5-yl)-1-[3-(trifluoromethyl)phenyl]-1H-indole-2-carboxamide], the melting point was in the range of 141 to 143 °C.

For `Cc1nc2cc(NC(=O)c3cc4cc(C(F)(F)F)ccc4n3Cc3cccc(F)c3)ccc2o1`, the melting point lay in the range of 182 to 183 °C.

`CN1CCCc2ccc(NC(=O)c3cc4cc(C(F)(F)F)ccc4n3Cc3cccc(F)c3)cc21` [Compound 27, N-(1-methyl-1,2,3,4-tetrahydroquinol-7-yl)-5-trifluoromethyl-1-[(3-fluorophenyl)methyl]-1H-indole-2-carboxamide] returned a melting point of 146 to 147 °C.

Compound `CC1C(=O)NOc2ccc(NC(=O)c3cc4ccccc4n3-c3cccc(C(F)(F)F)c3)cc21` (stereo not drawn) [Compound 6, N-(4-methyl-3-oxo-2H-benzoxazin-6-yl)-1-[3-(trifluoromethyl)phenyl]-1H-indole-2-carboxamide] gave a melting point of 178 to 180 °C.

Regarding `CS(=O)(=O)N1CCc2cc(NC(=O)c3cc4cc(F)ccc4n3Cc3cccc(F)c3)ccc21` [Compound 44, N-(1-methylsulfonylindolin-5-yl)-5-fluoro-1-[(3-fluorophenyl)methyl]-1H-indole-2-carboxamide], the melting point fell in the range of 192 to 193 °C.

Compound `Cc1nc2cc(NC(=O)c3cc4cc(C(F)(F)F)ccc4n3Cc3cccc(F)c3)ccc2s1` yielded a melting point of 191 to 192 °C.

`O=C1Cc2ccc(NC(=O)c3cc4ccccc4n3-c3cccc(C(F)(F)F)c3)cc2ON1` [Compound 11, N-(3-oxo-2H-benzoxazin-7-yl)-1-[3-(trifluoromethyl)phenyl]-1H-indole-2-carboxamide] yielded a melting point of 214 to 216 °C.

In turn, `O=C(Nc1ccc2[nH]nnc2c1)c1cc2cc(C(F)(F)F)ccc2n1Cc1cccc(F)c1` showed a melting point of 167 to 174 °C.

Compound `O=C(Nc1ccc2c(c1)CCNO2)c1cc2ccccc2n1-c1cccc(C(F)(F)F)c1` [Compound 10, N-(2,3-dihydrobenzoxazin-6-yl)-1-[3-(trifluoromethyl)phenyl]-1H-indole-2-carboxamide] showed a melting point of 90 to 92 °C.

`Cn1cnc2c(NC(=O)c3cc4cc(F)ccc4n3Cc3cccc(F)c3)cccc21`: the melting point lay within 195 to 197 °C.

With `Cn1ncc2cc(NC(=O)c3cc4cc(F)ccc4n3Cc3cccc(F)c3)ccc21`, the melting point lay within 210 to 211 °C.

Regarding `O=C1CCc2ccc(NC(=O)c3cc4cc(C(F)(F)F)ccc4n3Cc3cccc(F)c3)cc2N1` [Compound 41, N-(2-oxo-3,4-dihydroquinol-7-yl)-5-trifluoromethyl-1-[(3-fluorophenyl)methyl]-1H-indole-2-carboxamide], the melting point is 298 to 299 °C.

With `O=C(Nc1ccc2[nH]nnc2c1)c1cc2cc(F)ccc2n1Cc1cccc(F)c1`, the melting point is 220 to 221 °C.

As for `O=C1Cc2cc(NC(=O)c3cc4cc(F)ccc4n3Cc3cccc(F)c3)ccc2N1` [Compound 42, N-(2-oxoindolin-5-yl)-5-fluoro-1-[(3-fluorophenyl)methyl]-1H-indole-2-carboxamide], the melting point was in the range of 249 to 250 °C.

The compound `O=C(Nc1ccc2ocnc2c1)c1cc2ccccc2n1-c1cccc(C(F)(F)F)c1` [Compound 17, N-(benzoxazol-5-yl)-1-[3-(trifluoromethyl)phenyl]-1H-indole-2-carboxamide] showed a melting point of 222 to 224 °C.

Turning to `O=C(Nc1ccc2ncsc2c1)c1cc2cc(C(F)(F)F)ccc2n1Cc1cccc(F)c1`, the melting point lay within 191 to 192 °C.

Take `O=C1Cc2cc(NC(=O)c3cc4cc(C(F)(F)F)ccc4n3Cc3cccc(F)c3)ccc2N1` [Compound 25, N-(2-oxoindolin-5-yl)-5-trifluoromethyl-1-[(3-fluorophenyl)methyl]-1H-indole-2-carboxamide]: the melting point lay within 244 to 246 °C.

In the case of `Cc1nc2cc(NC(=O)c3cc4cc(F)ccc4n3Cc3cccc(F)c3)ccc2s1`, the melting point fell in the range of 201 to 202 °C.

`O=C(Nc1ccc2ncccc2c1)c1cc2cc(F)ccc2n1Cc1cccc(F)c1` showed a melting point of 208 to 210 °C.

Turning to `O=C(Nc1ccc2ccncc2c1)c1cc2cc(F)ccc2n1Cc1cccc(F)c1` (as salt: HCl), the melting point is 270 to 272 °C.

Regarding `O=C(Nc1ccc2oc(-c3ccccc3)nc2c1)c1cc2cc(C(F)(F)F)ccc2n1Cc1cccc(F)c1` [Compound 47, N-(2-phenylbenzoxazol-5-yl)-5-trifluoromethyl-1-[(3-fluorophenyl)methyl]-1H-indole-2-carboxamide], the melting point lay in the range of 194 to 195 °C.

As for `Cc1nc2cc(NC(=O)c3cc4cc(F)ccc4n3Cc3cccc(F)c3)ccc2o1`, the melting point was 188 to 189 °C.

`Cc1nc2ccc(NC(=O)c3cc4cc(F)ccc4n3Cc3cccc(F)c3)cc2[nH]1` (as salt: HCl) gave a melting point of 195 to 200 °C.

Compound `CCc1nc2cc(NC(=O)c3cc4cc(C(F)(F)F)ccc4n3Cc3cccc(F)c3)ccc2o1` [Compound 46, N-(2-ethylbenzoxazol-5-yl)-5-trifluoromethyl-1-[(3-fluorophenyl)methyl]-1H-indole-2-carboxamide] returned a melting point of 187 to 189 °C.

As to `COc1ccc2cc(C(=O)Nc3ccc4c(c3)NC(=O)CC4)n(Cc3ccc(F)cc3)c2c1` [Compound 53, N-(2-oxo-3,4-dihydroquinol-7-yl)-6-methoxy-1-[(4-fluorophenyl)methyl]-1H-indole-2-carboxamide], the melting point was in the range of 255 to 256 °C.

`O=C(Nc1ccc2nccnc2c1)c1cc2cc(F)ccc2n1Cc1cccc(F)c1` showed a melting point of 188 to 189 °C.

With `O=C(Nc1ccc2ncsc2c1)c1cc2cc(F)ccc2n1Cc1cccc(F)c1`, the melting point is 167 to 168 °C.

For `Cn1cnc2cc(NC(=O)c3cc4cc(F)ccc4n3Cc3cccc(F)c3)ccc21`, the melting point fell in the range of 248 to 251 °C.

With `O=C(Nc1ccc2c(c1)NCCC2)c1cc2ccccc2n1-c1cccc(C(F)(F)F)c1` [Compound 4, N-(1,2,3,4-tetrahydroquinol-7-yl)-1-[3-(trifluoromethyl)phenyl]-1H-indole-2-carboxamide], the melting point fell in the range of 140 to 143 °C.

The compound `CN1CCCc2ccc(NC(=O)c3cc4ccccc4n3-c3cccc(C(F)(F)F)c3)cc21` [Compound 2, N-(1-methyl-1,2,3,4-tetrahydroquinol-7-yl)-1-[3-(trifluoromethyl)phenyl]-1H-indole-2-carboxamide] came in with a melting point of 92 to 95 °C.

Turning to `O=C(Nc1cccc2c1NCCC2)c1cc2ccccc2n1-c1cccc(C(F)(F)F)c1` [Compound 16, N-(1,2,3,4-tetrahydroquinol-8-yl)-1-[3-(trifluoromethyl)phenyl]-1H-indole-2-carboxamide], the melting point lay within 93 to 95 °C.

As for `Cc1nc2cc(NC(=O)c3cc4cc(F)ccc4n3Cc3cccc(F)c3)ccc2n1C`, the melting point was 281 to 282 °C.

`O=C(Nc1ccc2nc[nH]c2c1)c1cc2cc(F)ccc2n1Cc1cccc(F)c1` (as salt: HCl): the melting point lay within 275 to 280 °C.

For the compound `Cn1cnc2ccc(NC(=O)c3cc4cc(F)ccc4n3Cc3cccc(F)c3)cc21`, the melting point lay within 215 to 216 °C.

The compound `O=C(Nc1cccc2cnccc12)c1cc2cc(F)ccc2n1Cc1cccc(F)c1` displayed a melting point of 206 to 207 °C.
